Columns and labels:
[1] = target: T1, Photoreceptor-specific nuclear receptor (Homo sapiens, UniProt Q9Y5X4); test: Agonist activity at NR2E3 by beta lactamase transactivation assay; format: functional
[2] = target: T1, Photoreceptor-specific nuclear receptor; test: Agonist activity at NR2E3 by luciferase NCOR release assay in CHO cells; format: functional, cell-based

T1 sequence (Q9Y5X4 whole entry): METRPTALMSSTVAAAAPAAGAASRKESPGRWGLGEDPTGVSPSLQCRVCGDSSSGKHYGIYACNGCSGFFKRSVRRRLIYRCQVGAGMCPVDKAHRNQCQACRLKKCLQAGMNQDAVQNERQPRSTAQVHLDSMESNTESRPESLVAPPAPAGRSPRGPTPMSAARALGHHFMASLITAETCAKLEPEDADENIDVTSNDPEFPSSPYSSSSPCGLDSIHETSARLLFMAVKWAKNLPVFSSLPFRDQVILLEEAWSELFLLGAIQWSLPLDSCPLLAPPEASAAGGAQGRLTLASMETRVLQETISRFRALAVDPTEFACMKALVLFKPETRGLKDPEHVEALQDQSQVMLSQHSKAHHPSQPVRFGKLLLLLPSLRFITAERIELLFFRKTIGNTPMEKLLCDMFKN

Cc1ccccc1C(=O)Nc1ccc(-c2nc3ccc(NC(=O)c4ccccc4Cl)cc3[nH]2)cc1
EC50 [1]: 0.26 µM | EC50 [2]: 0.33 µM

O=C(Nc1ccc(-c2nc3cc(NC(=O)C4CC4(F)F)ccc3[nH]2)cc1)c1ccccc1Cl (stereo unspecified)
EC50 [1]: 2.1 µM | EC50 [2]: 3 µM

O=C(Nc1ccc2[nH]c(-c3ccc4c(c3)OCO4)nc2c1)c1ccccc1Cl
EC50 [1]: > 25 µM | EC50 [2]: 7.2 µM

O=C(Nc1ccc(-c2nc3cc(NC(=O)[C@@H]4C[C@H]4F)ccc3[nH]2)cc1)c1ccccc1Cl
EC50 [1]: 0.72 µM | EC50 [2]: 0.26 µM

O=C(Nc1ccc(-c2nc3cc(NC(=O)c4ccccc4Cl)ccc3[nH]2)cc1)c1ccccc1
EC50 [1]: 0.27 µM | EC50 [2]: 0.61 µM

CC(C)C(=O)Nc1ccc2nc(-c3ccc(NC(=O)c4ccccc4Cl)cc3)[nH]c2c1
EC50 [1]: 0.316 µM | EC50 [2]: 0.147 µM

O=C(Nc1ccc2nc(-c3cc(Cl)cc(Cl)c3O)[nH]c2c1)c1ccccc1Cl
EC50 [1]: > 25 µM | EC50 [2]: 4.2 µM

O=C(Nc1ccc2nc(-c3ccc(NC(=O)c4cccnc4Cl)cc3)[nH]c2c1)c1ccccc1Cl
EC50 [1]: 4.8 µM | EC50 [2]: 2.2 µM

N#CC1(C(=O)Nc2ccc3[nH]c(-c4ccc(NC(=O)c5ccccc5Cl)cc4)nc3c2)CC1
EC50 [1]: 17 µM | EC50 [2]: 10 µM

CC(C)(C)C(=O)Nc1ccc2nc(-c3ccc(NC(=O)c4ccccc4Cl)cc3)[nH]c2c1
EC50 [1]: 6.27 µM | EC50 [2]: 2.61 µM

O=C(Nc1ccc(-c2nc3ccc(NC(=O)C4CC4)cc3[nH]2)cc1)c1ccccc1Cl
EC50 [1]: 0.141 µM | EC50 [2]: 0.035 µM

CC1(C(=O)Nc2ccc3nc(-c4ccc(NC(=O)c5ccccc5Cl)cc4)[nH]c3c2)CC1
EC50 [1]: 2.5 µM | EC50 [2]: 2.9 µM

O=C(Nc1ccc(-c2nc3cc(NC(=O)c4ccccc4Cl)ccc3[nH]2)cc1)c1ccccc1F
EC50 [1]: 0.27 µM | EC50 [2]: 0.17 µM

O=C(Nc1ccc2nc(-c3cnn(-c4ccc(F)cc4)c3)[nH]c2c1)c1ccccc1Cl
EC50 [1]: > 25 µM | EC50 [2]: 4.1 µM

O=C(Nc1ccc(-c2nc3ccc(NC(=O)C4CCCC4)cc3[nH]2)cc1)c1ccccc1Cl
EC50 [1]: 3.16 µM | EC50 [2]: 1.32 µM

O=C(Nc1cccc(-c2nc3cc(NC(=O)c4ccccc4Cl)ccc3[nH]2)c1)c1ccccc1Cl
EC50 [1]: 10 µM | EC50 [2]: 4.1 µM

O=C(Nc1ccc(-c2nc3cc(NC(=O)C4CCC4)ccc3[nH]2)cc1)c1ccccc1Cl
EC50 [1]: 1.33 µM | EC50 [2]: 0.986 µM

O=C(Nc1ccc(-c2nc3cc(NC(=O)C4(c5ccccc5)CC4)ccc3[nH]2)cc1)c1ccccc1Cl
EC50 [1]: > 25 µM | EC50 [2]: 0.37 µM
